Where two headings read alike, the source gives them in different places.
Key:
[1] = target: HDAC1 (Homo sapiens, UniProt Q13547); assay: HDAC1 enzyme activity assay; type: biochemical; details: HDAC1 compared to HDAC6
[2] = target: HDAC2 (Homo sapiens, UniProt Q92769); assay: HDAC2 enzyme activity assay; type: biochemical; details: HDAC2 compared to HDAC6
[3] = target: HDAC3 (Homo sapiens, UniProt O15379); assay: HDAC3 enzyme activity assay; type: biochemical; details: HDAC3 compared to HDAC6
[4] = target: T1, HDAC8 (Homo sapiens, UniProt Q9BY41); assay: HDAC8 enzyme activity assay; type: biochemical; details: HDAC8 compared to HDAC6
T1 sequence (Q9BY41 1-377): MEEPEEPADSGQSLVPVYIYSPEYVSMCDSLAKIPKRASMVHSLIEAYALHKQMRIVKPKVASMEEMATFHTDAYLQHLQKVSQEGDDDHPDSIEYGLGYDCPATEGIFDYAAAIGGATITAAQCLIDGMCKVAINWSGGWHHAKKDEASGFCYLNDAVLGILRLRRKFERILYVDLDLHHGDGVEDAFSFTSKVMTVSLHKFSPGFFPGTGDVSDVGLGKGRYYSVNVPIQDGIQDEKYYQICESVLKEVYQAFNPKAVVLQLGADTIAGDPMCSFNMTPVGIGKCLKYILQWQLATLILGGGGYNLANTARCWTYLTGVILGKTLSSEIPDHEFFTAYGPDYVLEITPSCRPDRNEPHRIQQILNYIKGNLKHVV
Method: (§1) The HDAC6 substrate Ac-Lys-AMC (Chinapeptides, China), human recombinant protein HDAC6 (100 ng/mL) (BPS bioscience, USA), and the test compounds were incubated together at 37°C in an assay buffer. The assay buffer consisted of 25 mM HEPES (pH 7.5), 100 mM NaCl, 2.5 mM KCl, 0.005% Tween-20, 1 mM MgCl2, and 0.1 mg/mL bovine serum albumin. After incubation for 1 hour, trypsin was added to release the fluorescent fragment.

[5] = target: T2, HDAC6 (Homo sapiens, UniProt Q9UBN7); assay: BLI binding assay; details: biotinylated HDAC6 on streptavidin biosensors
T2 sequence (Q9UBN7 1-1215): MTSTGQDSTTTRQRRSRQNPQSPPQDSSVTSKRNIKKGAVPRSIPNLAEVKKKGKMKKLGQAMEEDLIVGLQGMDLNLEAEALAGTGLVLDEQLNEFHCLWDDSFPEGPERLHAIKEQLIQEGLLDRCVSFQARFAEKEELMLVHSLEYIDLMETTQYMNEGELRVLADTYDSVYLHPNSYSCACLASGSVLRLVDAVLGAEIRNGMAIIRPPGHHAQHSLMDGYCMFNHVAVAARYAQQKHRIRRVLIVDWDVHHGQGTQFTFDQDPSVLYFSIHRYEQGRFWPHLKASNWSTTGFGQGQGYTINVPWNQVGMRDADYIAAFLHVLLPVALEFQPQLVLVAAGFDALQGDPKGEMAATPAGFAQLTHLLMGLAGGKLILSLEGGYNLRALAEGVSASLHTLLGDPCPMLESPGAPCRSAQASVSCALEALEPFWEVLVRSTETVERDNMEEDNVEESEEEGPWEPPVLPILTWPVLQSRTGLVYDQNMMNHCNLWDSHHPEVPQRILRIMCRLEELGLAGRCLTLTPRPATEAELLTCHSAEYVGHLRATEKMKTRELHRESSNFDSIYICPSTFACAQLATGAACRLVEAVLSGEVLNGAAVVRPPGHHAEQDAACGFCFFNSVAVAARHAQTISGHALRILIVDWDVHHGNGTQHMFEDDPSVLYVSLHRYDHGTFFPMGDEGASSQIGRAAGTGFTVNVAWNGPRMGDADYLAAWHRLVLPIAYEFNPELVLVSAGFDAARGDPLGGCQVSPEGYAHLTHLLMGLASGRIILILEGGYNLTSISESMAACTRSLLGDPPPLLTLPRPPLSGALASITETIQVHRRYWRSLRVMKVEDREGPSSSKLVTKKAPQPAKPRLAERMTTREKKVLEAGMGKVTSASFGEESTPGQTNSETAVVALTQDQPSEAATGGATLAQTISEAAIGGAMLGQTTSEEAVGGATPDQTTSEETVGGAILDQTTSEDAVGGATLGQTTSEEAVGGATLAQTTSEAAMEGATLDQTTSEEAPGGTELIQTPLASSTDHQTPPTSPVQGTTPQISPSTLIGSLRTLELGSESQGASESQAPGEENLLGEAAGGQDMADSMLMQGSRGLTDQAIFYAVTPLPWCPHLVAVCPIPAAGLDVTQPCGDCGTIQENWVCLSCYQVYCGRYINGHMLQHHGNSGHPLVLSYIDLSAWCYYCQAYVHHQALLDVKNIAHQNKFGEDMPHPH
Method: BLI experiments were conducted using an Octet Red 96 instrument (ForteBio). Streptavidin-coated biosensors (SA, ForteBio) were utilized, and biotinylated HDAC6 protein (50 μg/mL) was immobilized on the biosensor surface. The immobilization levels typically exceeded 0.3 nm. Ligand-loaded SA biosensors were then exposed to various concentrations of compound 10n. The dissociation constants for the interactions between HDAC6 and compound 10n were determined by plotting the increase in BLI response as a function of […].

[6] = tested on: MGC‐803 cells; assay: Cytotoxicity against MGC-803 cells; type: cell-based; details: Homo sapiens, 72 h
[7] = tested on: MKN‐45 cells; assay: Cytotoxicity against MKN-45 cells; type: cell-based; details: Homo sapiens, 72 h
[8] = tested on: gastric cancer cells; assay: Apoptosis, mitochondrial membrane potential and apoptosis protein expression in gastric cancer cells; type: cell-based
Method: (§2) Following the indicated treatment, cells were collected and lysed using the recommended amount of radio immunoprecipitation assay (RIPA) buffer from KMT Bio, China, according to the provided instructions. The protein concentration in the lysate was determined using a bicinchoninic acid (BCA)-based protein quantification kit from KMT Bio, China. Subsequently, the samples were denatured in the presence of a 6× loading buffer from KMT Bio, China. Equal amounts of denatured protein samples were subjected to sodium dodecyl sulfate-polyacrylamide gel electrophoresis (SDS-PAGE), and the target protein was then transferred to a nitrocellulose membrane using the wet transfer method with Pall, USA membranes. The membrane was incubated with 5% non-fat milk at 37°C for 1 hour to block non-specific binding, followed by an overnight incubation at 4°C with the recommended concentration of the primary antibody. Afterward, the membranes were washed three times with PBST (PBS buffer with 0.1% Tween-20) for 10 minutes each. The secondary antibody was then appropriately diluted and incubated with the membrane at room temperature for 1 hour. Finally, the membranes were washed three more times with PBST for 10 minutes each, and the protein bands were visualized using an ECL chemiluminescence detection kit from ThermoFisher, USA.

[9] = target: T2, HDAC6; assay: CETSA of HDAC6 at the cellular level; type: cell-based
[10] = tested on: HDAC6 (Ac‐α‐tubulin, Ac‐H3 readout); assay: Western blot of HDAC6, Ac-H3 and Ac-α-tubulin in cells; type: cell-based
Method: as §2

[11] = tested on: MGC‐803 cells; assay: PD-L1 expression in MGC-803 cells; type: cell-based; details: compared to vehicle control
[12] = Pharmacokinetic study in mice; type: in vivo; details: male, ICR, mouse, plasma
Method: Six male ICR mice were divided into two groups, receiving compound 10n via intravenous and oral administration, respectively. The intravenous injection group had blood samples collected at 5 min, 15 min, 30 min, 1 h, 2 h, 4 h, 6 h, 8 h, and 24 h post-administration; the oral group had blood samples collected at the same time points. Approximately 0.05 mL of blood was collected for each sample. The concentration of compound 10n in mouse plasma samples was determined using LC-MS/MS method and pharmacokinetic parameters were calculated using WinNolin software.

[13] = tested on: MFC cells; type: in vivo, mice; details: for tumor growth inhibition rate (TGI): MFC tumor, 615 mice, 14 days
Method: Six-week-old 615 mice (male) were procured from SJA laboratory animals in Hunan, China, and acclimated to a pathogen-free environment for one week before the commencement of the experiment. Subsequently, 5 × 10^5 of gastric cancer cell MFC were subcutaneously administered into the right flank of the mice. Tumor volume was determined using the formula length × width^2/2. […] Following 14 days, the mice were euthanized, and their tumors and vital organs were dissected for analysis. Paraffin sections measuring 4 µm in thickness were subjected to deparaffinization and subsequently treated with 3% hydrogen peroxide to inhibit endogenous peroxidase activity. Following this, slides were prepared to prevent nonspecific antibody binding and were then exposed to primary antibodies targeting HDAC6, Ac-tubulin, Ki-67, and Tunnel. The mice involved in the study were maintained in specific pathogen-free environments, and the experimental procedures were approved by the Ethics Committee of the Zhengzhou University Health Science Centre. The animal experimentation ethics number is ZZU-URIB-2024-O-109. All experimental animals adhered to the ARRIVE guidelines and were strictly in accordance with the National Research Council Guidelines for the Care and Use of Laboratory Animals.

[14] = target: T2, HDAC6; assay: HDAC6 enzymatic assay (Ac-Lys-AMC substrate, fluorescence); type: biochemical; set-up: purchased BPS bioscience, USA; details: enzyme activity assay
Method: as §1

Chain of HDAC3 (O15379 whole entry, species assumed): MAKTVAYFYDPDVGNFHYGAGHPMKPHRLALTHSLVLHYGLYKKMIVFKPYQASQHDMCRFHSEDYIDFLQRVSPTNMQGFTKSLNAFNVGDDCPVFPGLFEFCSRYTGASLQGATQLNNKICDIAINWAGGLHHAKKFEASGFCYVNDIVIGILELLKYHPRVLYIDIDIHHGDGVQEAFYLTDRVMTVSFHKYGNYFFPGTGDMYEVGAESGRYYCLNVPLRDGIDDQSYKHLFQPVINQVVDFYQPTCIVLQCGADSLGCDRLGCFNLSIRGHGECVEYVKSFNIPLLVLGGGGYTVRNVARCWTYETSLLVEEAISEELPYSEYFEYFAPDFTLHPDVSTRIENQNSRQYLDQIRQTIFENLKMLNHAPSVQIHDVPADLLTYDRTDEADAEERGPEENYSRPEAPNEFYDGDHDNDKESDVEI
Chain of HDAC3 (Q9Y618 395-489 partner limits assumed, species assumed): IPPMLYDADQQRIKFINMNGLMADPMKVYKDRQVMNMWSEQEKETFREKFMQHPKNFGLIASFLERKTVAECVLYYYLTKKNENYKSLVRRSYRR
Chain of HDAC1 (Q13547 whole entry, species assumed): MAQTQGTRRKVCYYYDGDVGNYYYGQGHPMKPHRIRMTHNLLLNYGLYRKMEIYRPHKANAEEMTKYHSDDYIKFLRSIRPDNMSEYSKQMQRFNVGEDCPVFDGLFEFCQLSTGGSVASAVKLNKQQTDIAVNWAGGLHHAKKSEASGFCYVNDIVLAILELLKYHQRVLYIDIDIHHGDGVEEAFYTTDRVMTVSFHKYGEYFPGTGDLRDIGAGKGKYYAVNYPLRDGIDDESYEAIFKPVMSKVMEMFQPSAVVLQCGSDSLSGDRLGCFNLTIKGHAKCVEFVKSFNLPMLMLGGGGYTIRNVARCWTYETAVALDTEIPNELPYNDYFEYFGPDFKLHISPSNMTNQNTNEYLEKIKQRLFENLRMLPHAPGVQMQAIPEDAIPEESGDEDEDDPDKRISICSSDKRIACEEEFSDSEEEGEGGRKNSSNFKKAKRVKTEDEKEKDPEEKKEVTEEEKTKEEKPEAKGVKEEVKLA
Chain of HDAC2 (Q92769 whole entry, species assumed): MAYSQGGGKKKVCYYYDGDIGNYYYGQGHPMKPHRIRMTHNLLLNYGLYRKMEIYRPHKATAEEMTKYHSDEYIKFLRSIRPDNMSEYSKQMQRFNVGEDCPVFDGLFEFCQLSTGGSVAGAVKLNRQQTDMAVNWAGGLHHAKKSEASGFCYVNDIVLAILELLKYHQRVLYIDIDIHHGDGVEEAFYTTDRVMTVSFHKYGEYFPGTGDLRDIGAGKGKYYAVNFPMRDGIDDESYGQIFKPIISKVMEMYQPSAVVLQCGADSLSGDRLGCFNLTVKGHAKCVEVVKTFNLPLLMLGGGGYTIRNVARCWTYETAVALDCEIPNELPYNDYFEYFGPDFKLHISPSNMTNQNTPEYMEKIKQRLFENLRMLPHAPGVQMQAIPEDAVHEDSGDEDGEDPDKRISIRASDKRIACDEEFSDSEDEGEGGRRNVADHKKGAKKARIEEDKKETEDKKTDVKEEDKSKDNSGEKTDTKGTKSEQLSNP

Question: With `O=C(NO)c1ccc(CNC(=O)c2cn(CC3CC3)c3ccccc23)cc1` [Compound 10n] as the compound, how does the “selectivity ratio HDAC1/6” value [1] read?
Answer: Its value is 133.7 fold.

Question: And the “selectivity ratio HDAC2/6” value [2]?
Answer: Its value is 27.8 fold.

Question: What about the “selectivity ratio HDAC3/6” value [3] of the same compound?
Answer: The value was 82.8 fold.

Question: What about the “selectivity ratio HDAC8/6” value [4] of the same compound?
Answer: Its value is 622.22 fold.

Question: And the Kd [5]?
Answer: The Kd was 330 ± 180 nM.

Question: And the IC50 [6]?
Answer: Its IC50 is 1070 ± 312 nM.

Question: What about the IC50 [7] of the same compound?
Answer: The IC50 was 2700 ± 935 nM.

Question: What about the “mitochondrial membrane potential ratios” value [8] of the same compound?
Answer: Its value is “increase”.

Question: And the “proportion of apoptotic cells” value [8]?
Answer: Its value is “dose‐dependent increase”.

Question: What about the “HDAC6 thermal stabilization (CETSA)” value [9] of the same compound?
Answer: Its value is “notably stabilized HDAC6”.

Question: And the “acetylated H3 levels and HDAC6” value [10]?
Answer: The value was “no impact”.

Question: And the “acetylated α-tubulin levels” value [10]?
Answer: The value was “dose‐dependent increase”.

Question: What about the PD-L1 expression [11] of the same compound?
Answer: The PD-L1 expression was “dose‐dependent reduction”.

Question: And the AUC ([12]; iv)?
Answer: Its AUC is 350 ± 51.9 ng·h/mL.

Question: And the half-life ([12]; iv)?
Answer: Its half-life is 1.61 ± 0.34 h.

Question: And the AUC ([12]; po)?
Answer: The AUC was 730 ± 140 ng·h/mL.

Question: What about the bioavailability ([12]; po) of the same compound?
Answer: The bioavailability was 41.8 ± 0.08%.

Question: What about the half-life ([12]; po) of the same compound?
Answer: The half-life was 2 ± 0.44 h.

Question: And the “tumor growth inhibition rate (TGI)” value ([13]; oral 10 mg/kg once daily)?
Answer: The value was 55.3%.

Question: And the “tumor growth inhibition rate (TGI)” value ([13]; oral 20 mg/kg once daily)?
Answer: Its value is 80.6%.

Question: And the “toxicity in treated mice (body weight, organs)” value ([13]; MFC tumor-bearing mice, 10 or 20 mg/kg oral)?
Answer: Its value is “no apparent toxicity”.

Question: What about the “HDAC6 protein expression in treated animals” value ([13]; tumor tissue) of the same compound?
Answer: The value was “no changes”.

Question: What about the “Ki-67 expression in mice” value ([13]; tumor tissue) of the same compound?
Answer: Its value is “decreased”.

Question: What about the “levels of Ac-α-tubulin in treated animals” value ([13]; tumor tissue, immunohistochemistry) of the same compound?
Answer: The value was “markedly elevated”.

Question: And the “percentages of CD3+CD8+ cells in tumors” value ([13]; two treatment groups versus control)?
Answer: The value was “higher than the control”.

Question: What about the IC50 [14] of the same compound?
Answer: Its IC50 is 3.11 nM.

Source: paper PMC11923385, “Rational Design, Synthesis, and Biological Assessment of Potential Indole‐Capped HDAC6 Inhibitors for Gastric Cancer Suppression” (MedComm, 2025)
